Results on five molecules are retold here after paper PMC10449848, “Structural basis of lipid-droplet localization of 17-beta-hydroxysteroid dehydrogenase 13” (Nature Communications, 2023).

The target in series [1] is T1, human HSD17B11 (Homo sapiens, UniProt Q8NBQ5).
T1 construct: human HSD17B11 (residues 2-300, NP_057329.3); 10x His (N); TEV protease site (N); made in house; host or cells: Sf9 (baculovirus)
T1 sequence (Q8NBQ5 2-300): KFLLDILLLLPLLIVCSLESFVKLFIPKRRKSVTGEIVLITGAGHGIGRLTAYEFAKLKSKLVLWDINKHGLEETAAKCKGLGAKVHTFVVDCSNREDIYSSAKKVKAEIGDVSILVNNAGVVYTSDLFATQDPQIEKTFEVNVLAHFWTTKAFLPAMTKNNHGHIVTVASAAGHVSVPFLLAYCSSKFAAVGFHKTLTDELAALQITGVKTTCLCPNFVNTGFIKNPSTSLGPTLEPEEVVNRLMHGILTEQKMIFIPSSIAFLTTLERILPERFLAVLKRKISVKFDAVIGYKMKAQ
The series is described as follows: Thermal shift assay (static light scattering, Tagg), human HSD17B11. In kind it is binding. Particulars: Fig. 6d, 500 μM NAD+. The source says:
Because of the low enzymatic activities of dog wild-type HSD17B13 (Fig. 6a) and HSD17B11 with β-estradiol, it was difficult to measure compound inhibition of these proteins in a biochemical assay and we instead utilized direct binding methods to compare compounds interaction with different proteins. To understand ligand binding, we tested several approaches such as surface plasmon resonance and isothermal calorimetry. Like many membrane/detergent-associated proteins, however, these methods were not amenable for HSD17B13. We next turned to thermal shift assays (TSA) for comparing ligand binding affinities. TSA measures the changes in the thermal denaturation temperature of a protein under different conditions such as the presence compound, changes in buffer conditions, or sequence mutations. There are various readouts including intrinsic fluorescence or light scattering signals. We chose the static light scattering methods to detect the temperatures at which our proteins start to aggregate (Tagg), which are more suitable for membrane proteins that require detergent micelles for stability. Given that in theory[51] and in practice Tagg continues to increase with concentration of ligands far above their IC50s, we used high cofactor and inhibitor concentrations in the TSA experiments to maximize the ligand binding signal.
(§1) TSA studies were run on the UNit instrument (Unchained Labs, CA, USA). Experiments were run in either 25 mM sodium phosphate pH 7, 150 mM NaCl, 10% glycerol, 1 mM TCEP, 0.05% DDM, + different cofactors (NAD^+, NADH, NADP, NADPH; MilliporeSigma) or 25 mM HEPES pH 7.2, 300 mM NaCl, 0.5 mM TCEP, 0.05% DDM, 10% glycerol, ±500 µM NAD^+, and ±100 µM compound 1 (from 2 mM DMSO stock) or DMSO or 50 mM Hepes pH 7.5, 300 mM NaCl, 0.5 mM TCEP, 0.05% DDM, 500 µM NAD^+, ± 50 µM compounds (from 2 mM stock) or DMSO. Protein aggregation was measured by static light scattering at 266 and 473 nm with a 1 °C/sec ramp rate from 20-80 °C. The data was processed using the UNcle software (Unchained Labs, CA, USA), and temperatures at which the protein started aggregation were recorded as Tagg. Reported Tagg and analysis were based on measurements at 266 nm unless otherwise indicated. The protein concentration used was 10.4 μM.

The target of series [2] is T2, human HSD17B13 (Homo sapiens, UniProt Q7Z5P4).
T2 construct: human HSD17B13 (residues 2-300, NP_835236.2); 10x His (N); TEV protease site (N); made in house; host or cells: Sf9 (baculovirus)
T2 sequence (Q7Z5P4 2-300): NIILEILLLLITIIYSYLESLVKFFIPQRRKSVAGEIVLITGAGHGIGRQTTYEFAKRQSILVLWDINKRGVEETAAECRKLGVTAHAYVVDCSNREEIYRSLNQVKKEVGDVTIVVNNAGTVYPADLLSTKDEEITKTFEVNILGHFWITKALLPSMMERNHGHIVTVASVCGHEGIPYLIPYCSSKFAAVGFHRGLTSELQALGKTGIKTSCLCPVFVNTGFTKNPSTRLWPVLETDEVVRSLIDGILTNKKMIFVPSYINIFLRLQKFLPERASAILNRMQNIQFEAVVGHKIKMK
The series is described as follows: Thermal shift assay (static light scattering, Tagg), human HSD17B13. In kind it is binding. The settings on record: Fig. 6c; 500 μM NAD+ alone, no compound.
Source text: To understand ligand binding, we tested several approaches such as surface plasmon resonance and isothermal calorimetry. […] We next turned to thermal shift assays (TSA) for comparing ligand binding affinities. TSA measures the changes in the thermal denaturation temperature of a protein under different conditions such as the presence compound, changes in buffer conditions, or sequence mutations. There are various readouts including intrinsic fluorescence or light scattering signals. We chose the static light scattering methods to detect the temperatures at which our proteins start to aggregate (Tagg), which are more suitable for membrane proteins that require detergent micelles for stability.
as §1, with “indicated.” for “indicated. The protein concentration used was 10.4 μM.”

The target of series [3] is human mutant HSD17B13 (Q60K/I62R/R71H/E161K) (human) (UniProt Q7Z5P4). The series is described as follows: crystal structure; human mutant HSD17B13 with 1 mM NAD+, 1 mM compound 2 and 0.5% β-octyl-glucoside; 25% PEG3350, 0.1 M Bis-Tris pH 5.5, 0.2 M Li2SO4; room temperature.
Series [4] deals with the molecule itself. The series is described as follows: crystal structure; dog HSD17B13 at 12 mg/ml with 1 mM NAD+, 1 mM compound 1 and 0.125% β-octyl-glucoside; 30% PEG3350, 0.2 M ammonium chloride; room temperature; apo crystals by soaking with buffer containing NAD+ only.

Numbering of substitutions follows the chain as printed. Names may count otherwise. “And” between values parts separate entries of the source, which are not always exact repeats. Equal values may be shown once.

For `Cc1ccc(S(=O)(=O)c2cc(C)cc(S(=O)(=O)Nc3ccc(C(=O)O)cc3)c2C)cc1` [Compound 2], the “effect on protein stability in TSA” value in series [1] was “neither 1 nor 2 showed an effect on protein stability”. Also, the Tagg in series [1] (50 µM compound) is 40.37 °C and 38.02 °C and 40.65 °C and 41.03 °C and 39.22 °C and 40.82 °C and 39.77 °C and 38.1 °C.

As for `NC(=O)c1ccc[n+]([C@@H]2O[C@H](COP(=O)([O-])OP(=O)(O)OC[C@H]3O[C@@H](n4cnc5c(N)ncnc54)[C@H](O)[C@@H]3O)[C@@H](O)[C@H]2O)c1` [NAD, nicotinamide adenine dinucleotide], the “Tagg, individual measurements” value in series [2] is 43.6 °C (2×) and 38.9 °C and 40.5 °C and 42 °C and 41.7 °C (2×) and 41 °C.

By stoichiometry N is commonly meant a count of units in the complex or per binding partner. Take “human mutant HSD17B13 (Q60K/I62R/R71H/E161K) (from UniProt Q7Z5P4-1 20-300) (enzyme)”: the stoichiometry N in series [3] was 2.

B1: dog wild-type HSD17B13 (hydroxysteroid 17-beta-dehydrogenase 13) (enzyme, UniProt A0A8C0PP93 1-300, looked up)
chain: MNIILDLLLLLLTIIYSYLEALVKVFFPRKRKSVAGEIVLITGAGHGIGRWTAYEFAKQKSRLVLWDINKHGVEETAAECRKLGATVHTFVVDCGNREDIYNSVKQVKKEVGDVTILVNNAGTVYPADLLSTKDEEITKTFEINILGHFWITKALLPSMIKRNHGHIVTVASVCGHGVIPYLIPYCSSKFAAVGFHRALTLELQTLGITGIKTSCLCPVFVNTGFTKNPSTRLWPILETDTVARSLIDGILTNKKMIFVPSYYNIYLILDKFLPERALAAINHLQNIQFEAVIGHKTRMK
notes: HSD17B13, dog, AA1-300 of XP_038300006.1; Crystallised with NAD+ and compound 1; the apo (NAD+ only) crystals were made by soaking compound 1 out; It is held in two of the entries PDB 8G84, 8G89, 8G93 and 8G9V; also called Dog WT; dog WT HSD17B13; source: Sf9 (baculovirus), solubilised from membranes with C12E8, purified (NiNTA, SEC)
B1: in series [4], the “stoichiometry N” value turned out to be 2.

B2: dog mutant HSD17B13 (G177E/V178G/T205A/I293V) (enzyme, UniProt A0A8C0PP93 1-300, looked up)
chain: B1 chain with G177E, V178G, T205A, I293V
notes: HSD17B13, dog, AA1-300 of XP_038300006.1, with four residues at the compound 1 site changed to the human ones; It is held in one of the entries PDB 8G84, 8G89, 8G93 and 8G9V; also called dog quadruple mutant; mutated dog HSD17B13; source: Sf9 (baculovirus), solubilised from membranes with C12E8, purified (NiNTA, SEC)
For the molecule B2, the “stoichiometry N” value in series [4] turned out to be 2.
